In ChEMBL document CHEMBL3822398, “Design, synthesis and in vitro biological evaluation of short-chain C12-sphinganine and its 1,2,3-triazole analogs as potential antimicrobial and anti-biofilm agents” (Eur J Med Chem, 2016):
In brackets after ≈: the same amount, converted by molar mass. Blank lines part the entries; values can stand above or below the compound they belong to. Activity calls are given as the source filed them. The calls are words filed in the database; no cut-off is given here.

Columns and labels:
Staphylococcus aureus [1] = test: Antibacterial activity against Staphylococcus aureus MTCC 96 incubated for 24 hrs at 37 degC by well diffusion method; assay type: functional; conditions: MTCC 96, 24 h
Bacillus subtilis [2] = test: Antibacterial activity against Bacillus subtilis MTCC 121 incubated for 24 hrs at 37 degC by well diffusion method; assay type: functional; conditions: MTCC 121, 24 h
Staphylococcus aureus [3] = test: Antibacterial activity against Staphylococcus aureus MLS16 MTCC 2940 incubated for 24 hrs at 37 degC by well diffusion method; assay type: functional; conditions: MLS16 MTCC 2940, 24 h
Micrococcus luteus [4] = test: Antibacterial activity against Micrococcus luteus MTCC 2470 incubated for 24 hrs at 37 degC by well diffusion method; assay type: functional; conditions: MTCC 2470, 24 h
Raoultella planticola [5] = test: Antibacterial activity against Klebsiella planticola MTCC 530 incubated for 24 hrs at 37 degC by well diffusion method; assay type: functional; conditions: MTCC 530, 24 h
Escherichia coli [6] = test: Antibacterial activity against Escherichia coli MTCC 739 incubated for 24 hrs at 37 degC by well diffusion method; assay type: functional; conditions: MTCC 739, 24 h
Pseudomonas aeruginosa = test: Antibacterial activity against Pseudomonas aeruginosa MTCC 2453 incubated for 24 hrs at 37 degC by well diffusion method; assay type: functional; conditions: MTCC 2453, 24 h
Staphylococcus aureus [7] = test: Bactericidal activity against Staphylococcus aureus MTCC 96 incubated for 24 hrs; assay type: functional; conditions: MTCC 96, 24 h
Bacillus subtilis [8] = test: Bactericidal activity against Bacillus subtilis MTCC 121 incubated for 24 hrs; assay type: functional; conditions: MTCC 121, 24 h
Staphylococcus aureus [9] = test: Bactericidal activity against Staphylococcus aureus MLS16 MTCC 2940 incubated for 24 hrs; assay type: functional; conditions: MLS16 MTCC 2940, 24 h
Micrococcus luteus [10] = test: Bactericidal activity against Micrococcus luteus MTCC 2470 incubated for 24 hrs; assay type: functional; conditions: MTCC 2470, 24 h
Raoultella planticola [11] = test: Bactericidal activity against Klebsiella planticola MTCC 530 incubated for 24 hrs; assay type: functional; conditions: MTCC 530, 24 h
Escherichia coli [12] = test: Bactericidal activity against Escherichia coli MTCC 739 incubated for 24 hrs; assay type: functional; conditions: MTCC 739, 24 h
Candida albicans [13] = test: Antifungal activity against Candida albicans MTCC 183 incubated for 24 hrs at 30 degC by well diffusion method; assay type: functional; conditions: MTCC 183, 24 h
Candida albicans [14] = test: Antifungal activity against Candida albicans MTCC 227 incubated for 24 hrs at 30 degC by well diffusion method; assay type: functional; conditions: MTCC 227, 24 h
Candida albicans [15] = test: Antifungal activity against Candida albicans MTCC 854 incubated for 24 hrs at 30 degC by well diffusion method; assay type: functional; conditions: MTCC 854, 24 h
Candida albicans [16] = test: Antifungal activity against Candida albicans MTCC 1637 incubated for 24 hrs at 30 degC by well diffusion method; assay type: functional; conditions: MTCC 1637, 24 h
Candida albicans [17] = test: Antifungal activity against Candida albicans MTCC 3017 incubated for 24 hrs at 30 degC by well diffusion method; assay type: functional; conditions: MTCC 3017, 24 h
Candida albicans [18] = test: Antifungal activity against Candida albicans MTCC 3018 incubated for 24 hrs at 30 degC by well diffusion method; assay type: functional; conditions: MTCC 3018, 24 h
Candida albicans [19] = test: Antifungal activity against Candida albicans MTCC 3958 incubated for 24 hrs at 30 degC by well diffusion method; assay type: functional; conditions: MTCC 3958, 24 h
Candida albicans [20] = test: Antifungal activity against Candida albicans MTCC 4748 incubated for 24 hrs at 30 degC by well diffusion method; assay type: functional; conditions: MTCC 4748, 24 h
Candida albicans [21] = test: Antifungal activity against Candida albicans MTCC 7315 incubated for 24 hrs at 30 degC by well diffusion method; assay type: functional; conditions: MTCC 7315, 24 h
Candida parapsilosis [22] = test: Antifungal activity against Candida parapsilosis MTCC 1744 incubated for 24 hrs at 30 degC by well diffusion method; assay type: functional; conditions: Lodderomyces parapsilosis, MTCC 1744, 24 h
[Candida] aaseri [23] = Antifungal activity against Candida aaseri MTCC 1962 incubated for 24 hrs at 30 degC by well diffusion method; assay type: functional; conditions: Yamadazyma aaseri, MTCC 1962, 24 h
Nakaseomyces glabratus [24] = test: Antifungal activity against Candida glabrata MTCC 3019 incubated for 24 hrs at 30 degC by well diffusion method; assay type: functional; conditions: MTCC 3019, 24 h
Pichia kudriavzevii [25] = test: Antifungal activity against Candida krusei MTCC 3020 incubated for 24 hrs at 30 degC by well diffusion method; assay type: functional; conditions: MTCC 3020, 24 h
Pichia sporocuriosa [26] = test: Antifungal activity against Issatchenkia hanoiensis MTCC 4755 incubated for 24 hrs at 30 degC by well diffusion method; assay type: functional; conditions: MTCC 4755, 24 h
Candida albicans [27] = test: Fungicidal activity against Candida albicans MTCC 183 incubated for 24 hrs; assay type: functional; conditions: MTCC 183, 24 h
Candida albicans [28] = test: Fungicidal activity against Candida albicans MTCC 227 incubated for 24 hrs; assay type: functional; conditions: MTCC 227, 24 h
Candida albicans [29] = test: Fungicidal activity against Candida albicans MTCC 854 incubated for 24 hrs; assay type: functional; conditions: MTCC 854, 24 h
Candida albicans [30] = test: Fungicidal activity against Candida albicans MTCC 1637 incubated for 24 hrs; assay type: functional; conditions: MTCC 1637, 24 h
Candida albicans [31] = test: Fungicidal activity against Candida albicans MTCC 3017 incubated for 24 hrs; assay type: functional; conditions: MTCC 3017, 24 h
Candida albicans [32] = test: Fungicidal activity against Candida albicans MTCC 3018 incubated for 24 hrs; assay type: functional; conditions: MTCC 3018, 24 h
Candida albicans [33] = test: Fungicidal activity against Candida albicans MTCC 3958 incubated for 24 hrs; assay type: functional; conditions: MTCC 3958, 24 h
Candida albicans [34] = test: Fungicidal activity against Candida albicans MTCC 4748 incubated for 24 hrs; assay type: functional; conditions: MTCC 4748, 24 h
Candida albicans [35] = test: Fungicidal activity against Candida albicans MTCC 7315 incubated for 24 hrs; assay type: functional; conditions: MTCC 7315, 24 h
Candida parapsilosis [36] = test: Fungicidal activity against Candida parapsilosis MTCC 1744 incubated for 24 hrs; assay type: functional; conditions: Lodderomyces parapsilosis, MTCC 1744, 24 h
[Candida] aaseri [37] = Fungicidal activity against Candida aaseri MTCC 1962 incubated for 24 hrs; assay type: functional; conditions: Yamadazyma aaseri, MTCC 1962, 24 h
Nakaseomyces glabratus [38] = test: Fungicidal activity against Candida glabrata MTCC 3019 incubated for 24 hrs; assay type: functional; conditions: MTCC 3019, 24 h
Pichia kudriavzevii [39] = test: Fungicidal activity against Candida krusei MTCC 3020 incubated for 24 hrs; assay type: functional; conditions: MTCC 3020, 24 h
Pichia sporocuriosa [40] = test: Fungicidal activity against Issatchenkia hanoiensis MTCC 4755 incubated for 24 hrs; assay type: functional; conditions: MTCC 4755, 24 h
Candida albicans [41] = test: Induction of ROS accumulation in Candida albicans MTCC 227 sessile cells at 2 to 8 ug/ml incubated for 24 hrs by DCFH-DA dye based microplate reader analysis; assay type: functional, organism-based

SMILES: O=C(O)c1cn(C2CC2)c2cc(N3CCNCC3)c(F)cc2c1=O [CIPROFLOXACIN]
MIC (Staphylococcus aureus [1]): 0.9 µg/mL (≈ 2.72 µM)
MIC (Bacillus subtilis [2]): 0.9 µg/mL (≈ 2.72 µM)
MIC (Staphylococcus aureus [3]): 0.9 µg/mL (≈ 2.72 µM)
MIC (Micrococcus luteus [4]): 0.9 µg/mL (≈ 2.72 µM)
MIC (Raoultella planticola [5]): 0.9 µg/mL (≈ 2.72 µM)
MIC (Escherichia coli [6]): 0.9 µg/mL (≈ 2.72 µM)
MIC (Pseudomonas aeruginosa): 0.9 µg/mL (≈ 2.72 µM)
MBC (Staphylococcus aureus [7]): 0.9 µg/mL (≈ 2.72 µM)
MBC (Bacillus subtilis [8]): 1.9 µg/mL (≈ 5.73 µM)
MBC (Staphylococcus aureus [9]): 1.9 µg/mL (≈ 5.73 µM)
MBC (Micrococcus luteus [10]): 0.9 µg/mL (≈ 2.72 µM)
MBC (Raoultella planticola [11]): 0.9 µg/mL (≈ 2.72 µM)
MBC (Escherichia coli [12]): 1.9 µg/mL (≈ 5.73 µM)

MIC (Staphylococcus aureus [1]): > 250 µg/mL
MIC (Bacillus subtilis [2]): 31.2 µg/mL (≈ 104 µM)
MIC (Staphylococcus aureus [3]): > 250 µg/mL
MIC (Micrococcus luteus [4]): 7.8 µg/mL (≈ 26.1 µM)
MIC (Escherichia coli [6]): > 250 µg/mL
MIC (Pseudomonas aeruginosa): > 250 µg/mL
SMILES: CCCCCCCCC[C@@H](O)[C@H](CO)n1cc(CO)nn1
MIC (Raoultella planticola [5]): > 250 µg/mL
MBC (Staphylococcus aureus [7]): > 250 µg/mL
MBC (Bacillus subtilis [8]): 31.2 µg/mL (≈ 104 µM)
MBC (Staphylococcus aureus [9]): > 250 µg/mL
MBC (Micrococcus luteus [10]): 15.6 µg/mL (≈ 52.1 µM)
MBC (Raoultella planticola [11]): > 250 µg/mL
MBC (Escherichia coli [12]): > 250 µg/mL

MIC (Candida albicans [13]): 7.8 µg/mL (≈ 18.7 µM)
MIC (Candida albicans [14]): 7.8 µg/mL (≈ 18.7 µM)
MIC (Candida albicans [15]): 7.8 µg/mL (≈ 18.7 µM)
MIC (Candida albicans [16]): 7.8 µg/mL (≈ 18.7 µM)
MIC (Candida albicans [17]): 7.8 µg/mL (≈ 18.7 µM)
MIC (Candida albicans [18]): 7.8 µg/mL (≈ 18.7 µM)
MIC (Candida albicans [19]): 7.8 µg/mL (≈ 18.7 µM)
MIC (Candida albicans [20]): 7.8 µg/mL (≈ 18.7 µM)
MIC (Candida albicans [21]): 7.8 µg/mL (≈ 18.7 µM)
MIC (Candida parapsilosis [22]): 7.8 µg/mL (≈ 18.7 µM)
MIC ([Candida] aaseri [23]): 7.8 µg/mL (≈ 18.7 µM)
MIC (Nakaseomyces glabratus [24]): 7.8 µg/mL (≈ 18.7 µM)
MIC (Pichia kudriavzevii [25]): 7.8 µg/mL (≈ 18.7 µM)
MIC (Pichia sporocuriosa [26]): 7.8 µg/mL (≈ 18.7 µM)
SMILES: Clc1ccc(COC(Cn2ccnc2)c2ccc(Cl)cc2Cl)c(Cl)c1 (stereo not drawn) [MICONAZOLE]
MFC (Candida albicans [27]): 7.8 µg/mL (≈ 18.7 µM)
MFC (Candida albicans [28]): 15.6 µg/mL (≈ 37.5 µM)
MFC (Candida albicans [29]): 15.6 µg/mL (≈ 37.5 µM)
MFC (Candida albicans [30]): 15.6 µg/mL (≈ 37.5 µM)
MFC (Candida albicans [31]): 7.8 µg/mL (≈ 18.7 µM)
MFC (Candida albicans [32]): 7.8 µg/mL (≈ 18.7 µM)
MFC (Candida albicans [33]): 15.6 µg/mL (≈ 37.5 µM)
MFC (Candida albicans [34]): 7.8 µg/mL (≈ 18.7 µM)
MFC (Candida albicans [35]): 7.8 µg/mL (≈ 18.7 µM)
MFC (Candida parapsilosis [36]): 7.8 µg/mL (≈ 18.7 µM)
MFC ([Candida] aaseri [37]): 7.8 µg/mL (≈ 18.7 µM)
MFC (Nakaseomyces glabratus [38]): 15.6 µg/mL (≈ 37.5 µM)
MFC (Pichia kudriavzevii [39]): 7.8 µg/mL (≈ 18.7 µM)
MFC (Pichia sporocuriosa [40]): 7.8 µg/mL (≈ 18.7 µM)
Activity (Candida albicans [41]): Active

MIC (Staphylococcus aureus [1]): 31.2 µg/mL (≈ 99.5 µM)
MIC (Bacillus subtilis [2]): 31.2 µg/mL (≈ 99.5 µM)
MIC (Staphylococcus aureus [3]): > 250 µg/mL
MIC (Micrococcus luteus [4]): 15.6 µg/mL (≈ 49.8 µM)
MIC (Escherichia coli [6]): > 250 µg/mL
MIC (Pseudomonas aeruginosa): > 250 µg/mL
SMILES: CCCCCCCCC[C@@H](O)[C@H](CO)n1cc(CCO)nn1
MIC (Raoultella planticola [5]): > 250 µg/mL
MBC (Staphylococcus aureus [7]): 31.2 µg/mL (≈ 99.5 µM)
MBC (Bacillus subtilis [8]): 31.2 µg/mL (≈ 99.5 µM)
MBC (Staphylococcus aureus [9]): > 250 µg/mL
MBC (Micrococcus luteus [10]): 31.2 µg/mL (≈ 99.5 µM)
MBC (Raoultella planticola [11]): > 250 µg/mL
MBC (Escherichia coli [12]): > 250 µg/mL
